Source: publication PMC6105804, “In Vitro and In Vivo Evaluation of APX001A/APX001 and Other Gwt1 Inhibitors against Cryptococcus” (Antimicrobial Agents and Chemotherapy, 2018)
Like-named read-outs stand apart in the source and are kept apart here.

Columns and labels:
[1] = system: C. gattii; assay: Broth microdilution susceptibility testing (CLSI M27-A3); format: cell-based; conditions: Cryptococcus gattii
In short: (§1)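 CLSI broth microdilution (M27-A3 yeasts, M38-A2 molds), final 2 to 0.002 µg/ml, 35 °C for 40-48 h (C. albicans, A. fumigatus) or 72 h (C. neoformans). MIC for yeasts at 50% growth reduction versus DMSO control. A. fumigatus endpoint is MEC, lowest concentration shortening hyphae.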

[2] = system: FLC-susceptible and FLC-nonsusceptible/resistant strains of C. neoformans and C. gattii; assay: Broth microdilution, summary over the 18-strain Cryptococcus collection; format: cell-based, Cryptococcus neoformans and Cryptococcus gattii; conditions: 18 strains of C. neoformans and C. gattii; for MIC: read-out: Geometric mean MIC
In short: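 CLSI M27-A3 broth microdilution was run with final drug concentrations of 2 to 0.002 μg/ml from DMSO dilutions, incubated at 35°C for 72 h for C. neoformans. MIC was the lowest concentration giving 50% growth reduction versus the no-drug control, read with a mirror.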

[3] = parameters: method as in ref 23 = [23]; 23. Zhao Y , Lee M , Lee A , Paderu P , Park S , Perlin DS 2018 APX001 is effective against echinocandin and multi-drug resistant Candida isolates . Abstr 28th ECCMID , Madrid, Spain .; conditions: female CD-1 mice, cited from earlier work
[4] = Single-dose mouse pharmacokinetics of prodrugs with or without ABT; format: in vivo; conditions: for AUC: male, CD-1, mouse, plasma, 26 mg/kg
Experimental: The area under the curve (AUC) was calculated from time zero to the time of the last measurable concentration. The active metabolite concentrations in plasma (APX001A, APX2039, APX2020, and APX2041) were determined by liquid chromatography-tandem mass spectrometry. PK parameters were determined using Phoenix WinNonlin (v7.0) software and a noncompartmental model.

[5] = system: C. albicans 90028; assay: Broth microdilution susceptibility testing (CLSI M27-A3); format: cell-based, Candida albicans; conditions: Candida albicans, 90028; read-out: MIC, C. albicans 90028
In short: as §1

[6] = system: strains of C. albicans; parameters: method as in ref 24 = [24]; 24. Watanabe NA , Horii T , Miyazaki M , Hata K 2011 In vitro activity of E1210 and in vivo activity of E1211, a water-soluble prodrug of E1210, in combination with other antifungals, abstr F1-1378 .; conditions: cited from earlier work
[7] = parameters: method as in ref 11, 12 = [11]; 11. Hodges MR , Ople E , Shaw KJ , Mansbach RS , van Marle S , van Hoogdalem E , Kramer W , Wedel P 2017 Phase 1 study to assess safety, tolerability and pharmacokinetics of single and multiple oral d || [12]; 12. Hodges MR , Ople E , Shaw KJ , Mansbach RS , van Marle S , van Hoogdalem E , Wedel P , Kramer W 2017 First-in-human study to assess safety, tolerability and pharmacokinetics of APX001 administered; conditions: phase 1 studies in healthy volunteers; cited from earlier work
[8] = system: A. fumigatus MYA3626; assay: Broth microdilution susceptibility testing for molds (CLSI M38-A2); format: cell-based; conditions: Aspergillus fumigatus, MYA3626; read-out: MIC or MEC for A. fumigatus MYA3626
In short: as §1

[9] = system: C. neoformans; assay: Broth microdilution susceptibility testing (CLSI M27-A3); format: cell-based, Cryptococcus neoformans; conditions: Cryptococcus neoformans
In short: as §1

[10] = C. gattii isolate MYA-4093, read-out: MIC
[11] = C. gattii isolate MYA-4094, read-out: MIC
[12] = C. gattii isolate MYA-4560 (first listing, r17), read-out: MIC
[13] = C. gattii isolate MYA-4560 (second listing, r21), read-out: MIC
[14] = C. gattii isolate MYA-4561, read-out: MIC
[15] = C. gattii isolate MYA-4562, read-out: MIC
[16] = C. gattii isolate MYA-4563, read-out: MIC
[17] = C. gattii isolate MYA-4877, read-out: MIC
[18] = C. gattii isolate RSA-MW-3615 (FLC resistant), read-out: MIC
[19] = Table 1, 50% growth inhibition for FLC, caspofungin and APX compounds, 100% for AMB, read-out: MIC, C. gattii WM276
[20] = 100-mg/kg ABT orally 2 h prior to APX001 i.p.
[21] = 72 h, Table 1, 50% growth inhibition for FLC, caspofungin and APX compounds, 100% for AMB, 72 h, read-out: MIC, C. neoformans H99
[22] = C. neoformans isolate 14116, read-out: MIC
[23] = C. neoformans isolate 76484, read-out: MIC
[24] = C. neoformans isolate DUMC 118.00 (FLC resistant), read-out: MIC
[25] = C. neoformans isolate DUMC 158.03 (FLC resistant), read-out: MIC
[26] = C. neoformans isolate MYA-4564, read-out: MIC
[27] = C. neoformans isolate MYA-4565, read-out: MIC
[28] = C. neoformans isolate MYA-4566, read-out: MIC
[29] = C. neoformans isolate MYA-4567, read-out: MIC
[30] = Table 2, C. neoformans isolate H99, read-out: MIC

## Nc1ncccc1-c1cc(Cc2ccc(COc3ccccn3)cc2)no1 [APX001A]
[1]; [10]
  MIC: 0.5 µg/mL
[1]; [11]
  MIC: 0.25 µg/mL
[1]; [12]
  MIC: 0.25 µg/mL
[1]; [13]
  MIC: 0.25 µg/mL
[1]; [14]
  MIC: 0.5 µg/mL
[1]; [15]
  MIC: 0.25 µg/mL
[1]; [16]
  MIC: 0.5 µg/mL
[1]; [17]
  MIC: 0.25 µg/mL
[1]; [18]
  MIC: 0.125 µg/mL
[1]; [19]
  MIC: 0.125 µg/mL
[2]
  MIC90: 0.5 µg/mL
  MIC: 0.241 µg/mL
[3]; [20]
  fold increase in AUC with ABT: 9 fold
  half-life of the active moiety with ABT: 8.8 h
[3]; APX001 i.p.
  half-life of the active moiety without ABT: 1.3 h
[4]; 26 mg/kg prodrug
  Ratio of AUC with ABT/AUC without ABT, i.p. dosing: 5.6
  Ratio of AUC with ABT/AUC without ABT, p.o. dosing: 15.0
[4]; intraperitoneal, AUC of analyte after 26 mg/kg prodrug, 100 mg/kg ABT orally 2 h before, read-out: Avg AUC resulting from 26-mg/kg dose, i.p. dosing + ABT
  AUC: 24300 ± 17700 ng·h/mL
[4]; ip, AUC of analyte after 26 mg/kg of the corresponding prodrug, male CD-1 mice, no ABT, read-out: Avg AUC resulting from 26-mg/kg dose, i.p. dosing
  AUC: 4360 ± 110 ng·h/mL
[4]; po, AUC of analyte after 26 mg/kg prodrug, 100 mg/kg ABT orally 2 h before, read-out: Avg AUC resulting from 26-mg/kg dose, p.o. dosing + ABT
  AUC: 41500 ± 8090 ng·h/mL
[4]; po, AUC of analyte in plasma after 26 mg/kg of the corresponding prodrug, male CD-1 mice, no ABT, read-out: Avg AUC resulting from 26-mg/kg dose, p.o. dosing
  AUC: 2760 ± 230 ng·h/mL
[5]
  MIC: 0.008 µg/mL
[6]
  strains with synergy with FLC: 2 of 20
[7]
  exposures in humans: ≥ 200000 ng·h/mL
  half-life in humans: 60 h
[8]
  MIC: 0.016 µg/mL
[9]; [21]
  MIC: 0.25 µg/mL
[9]; [22]
  MIC: 0.125 µg/mL
[9]; [23]
  MIC: 0.125 µg/mL
[9]; [24]
  MIC: 0.25 µg/mL
[9]; [25]
  MIC: 0.25 µg/mL
[9]; [26]
  MIC: 0.125 µg/mL
[9]; [27]
  MIC: 0.5 µg/mL
[9]; [28]
  MIC: 0.25 µg/mL
[9]; [29]
  MIC: 0.25 µg/mL
[9]; [30]
  MIC: 0.125 µg/mL

## OC(Cn1cncn1)(Cn1cncn1)c1ccc(F)cc1F [FLC, fluconazole, reference compound]
[1]; [10]
  MIC: 2 µg/mL
[1]; [11]
  MIC: 2 µg/mL
[1]; [12]
  MIC: 1 µg/mL
[1]; [13]
  MIC: 1 µg/mL
[1]; [14]
  MIC: 4 µg/mL
[1]; [15]
  MIC: 2 µg/mL
[1]; [16]
  MIC: 4 µg/mL
[1]; [17]
  MIC: 4 µg/mL
[1]; [18]
  MIC: 64 µg/mL
[1]; [19]
  MIC: 1 µg/mL
[2]
  MIC90: 64 µg/mL
  MIC: 3.56 µg/mL
[5]
  MIC: 0.5 µg/mL
[8]
  MIC: > 16 µg/mL
[9]; [21]
  MIC: 2 µg/mL
[9]; [22]
  MIC: 4 µg/mL
[9]; [23]
  MIC: 4 µg/mL
[9]; [24]
  MIC: 64 µg/mL
[9]; [25]
  MIC: 32 µg/mL
[9]; [26]
  MIC: 4 µg/mL
[9]; [27]
  MIC: 1 µg/mL
[9]; [28]
  MIC: 2 µg/mL
[9]; [29]
  MIC: 1 µg/mL
[9]; [30]
  MIC: 1 µg/mL
